Data set [1] deals with MDA-MB-231. Nature of the data set: Cytotoxicity against human MDA-MB-231 cells assessed as reduction in cell viability by CCK8 assay. It is filed as functional, cell-based.
The nature of data set [2]: Cytotoxicity against human MCF-10A cells assessed as reduction in cell viability by CCK8 assay. It is filed as toxicity, cell-based. On the technique in general: Tetrazolium assays rely on reduction of a dye to a coloured formazan, in cell work by metabolically active cells.
In a further data set the test system is KYSE-30. The data set can be described thus: Cytotoxicity against human KYSE-30 cells assessed as reduction in cell viability by CCK8 assay. Type of data set: functional, cell-based.
In the next data set the test system is HCC1806. The data set can be described thus: Cytotoxicity against human HCC1806 cells assessed as reduction in cell viability by CCK8 assay. Type of data set: functional, cell-based.
In the next data set the test system is A549. The data set can be described thus: Cytotoxicity against human A549 cells assessed as reduction in cell viability by CCK8 assay. It is filed as functional, cell-based.
In data set [3] the test system is Quadruplex DNA. The data set can be described thus: Stabilization of c-Myc G4 quadruplex DNA (unknown origin) assessed as temperature at which 50% protein unfold by circular dichroism melting assay. It is filed as nucleic-acid assay. Background: Circular dichroism is the unequal absorption of left and right circularly polarised light.
The subject of the next data set is HeLa. Nature of the data set: Cytotoxicity against human HeLa cells assessed as reduction in cell viability by CCK8 assay. It is filed as functional, cell-based.
The nature of data set [4]: Toxicity in BALB/c mouse xenografted with human MDA-MB-231 cells assessed as effect on body weight at 2 mg/kg, ip administered every other day for 20 days and measured every 4 days. It is filed as organism-based. Conditions: in vivo, 480 h, time 20 day.
Data set [5] deals with MDA-MB-231. The data set can be described thus: Antitumor activity against human MDA-MB-231 cells xenografted in BALB/c nude mouse assessed as reduction in tumor weight at 2 mg/kg, ip administered every other day for 20 days and measured every 4 days. As to conditions: time 20.0 day. It is filed as functional, organism-based. Background: Xenograft models place foreign cells or tissue in a host animal.

Data set [6] concerns Quadruplex DNA. Nature of the data set: Stabilization of c-Myc G4 quadruplex DNA (unknown origin) assessed as temperature at 50% protein unfold by circular dichroism melting assay. It is filed as nucleic-acid assay.

Activity calls are given as the source filed them. No cut-off for these calls is given here.

As to `CN1CCN(c2ccc(-c3nc(-c4ccc(-c5ccccn5)cc4)[nH]c3-c3ccc(N4CCN(C)CC4)cc3)cc2)CC1`, the IC50 – broadly, the concentration at which inhibition is half-maximal – in the data set with MDA-MB-231 [1] was 2.19 µM; in data set [2], 7.75 µM; in the data set on KYSE-30 it was 2.79 µM; with HCC1806, 7.09 µM; with A549, 1.94 µM; in the data set with HeLa it was 12.3 µM. Also, the T in the data set with Quadruplex DNA [3] was 34.4 °C.
With `COc1cccc2c1C(=O)c1c(O)c3c(c(O)c1C2=O)C[C@@](O)(C(=O)CO)C[C@@H]3O[C@H]1C[C@H](N)[C@H](O)[C@H](C)O1` [DOXORUBICIN], in [4], the Activity entry was “Toxic”. Also, in the data set with MDA-MB-231 [5], the outcome was Active.
Turning to `CN1CCN(c2ccc(-c3nc(-c4ccc(-c5ccccc5)cc4)[nH]c3-c3ccc(N4CCN(C)CC4)cc3)cc2)CC1`, the IC50 with MDA-MB-231 [1] was 3.69 µM; in [2], 9.23 µM; in the data set with KYSE-30, 3.86 µM; in the data set on HCC1806 it was 5.68 µM; with A549 it was 2.51 µM; in the data set on HeLa it was 8.92 µM. For the same compound, the T with Quadruplex DNA [3] was found to be 36.8 °C.
Take `CN1CCN(c2ccc(-c3nc(-c4ccc(-c5ccccc5C(F)(F)F)cc4)[nH]c3-c3ccc(N4CCN(C)CC4)cc3)cc2)CC1`: the IC50 was 2.43 µM in the data set with MDA-MB-231 [1]; over 20 µM in [2]; 2.21 µM with KYSE-30; 1.9 µM in the data set on HCC1806; 1.7 µM in the data set with A549; 3.55 µM in the data set on HeLa. Moreover, the T in the data set with Quadruplex DNA [3] turned out to be 29.6 °C.
Turning to `COc1ccccc1-c1ccc(-c2nc(-c3ccc(N4CCN(C)CC4)cc3)c(-c3ccc(N4CCN(C)CC4)cc3)[nH]2)cc1`, the IC50 in the data set with MDA-MB-231 [1] is 8.19 µM; in data set [2] it was over 20 µM; in the data set on KYSE-30 it was 8.64 µM; in the data set on HCC1806 it was over 20 µM; in the data set on A549 it was 7.51 µM; in the data set with HeLa, over 20 µM. In addition, in the data set with Quadruplex DNA [3], the T was 23.5 °C.
Consider `CN1CCN(c2ccc(-c3nc(-c4ccc(C(F)(F)F)cc4)[nH]c3-c3ccc(N4CCN(C)CC4)cc3)cc2)CC1`, for which the T with Quadruplex DNA [6] was 28.4 °C.
For `COc1ccc(-c2ccc(-c3nc(-c4ccc(N5CCN(C)CC5)cc4)c(-c4ccc(N5CCN(C)CC5)cc4)[nH]3)cc2)cc1`, the IC50 in the data set on MDA-MB-231 [1] turned out to be 2.69 µM; in data set [2], 9.69 µM; in the data set on KYSE-30 it was 2.5 µM; in the data set on HCC1806, 3.74 µM; in the data set on A549, 2.42 µM; in the data set on HeLa it was 5.49 µM. Besides, in the data set on Quadruplex DNA [3], the T came to 36.2 °C.

Source of the values: ChEMBL document CHEMBL5380876, “Non-fused imidazole-biphenyl analogs repress triple-negative breast cancer growth by mainly stabilizing the c-MYC G-quadruplex via a multi-site binding mode” (Bioorg Med Chem, 2023).
